Experimental data published in ChEMBL document CHEMBL5608253, “Discovery and Optimization of Aryl Piperidinone Ureas as Selective Formyl Peptide Receptor 2 Agonists” (ACS Med Chem Lett, 2024).

Tests used:
[1] = molecular target: T1, N-formyl peptide receptor 2 (Homo sapiens, UniProt P25090); assay: Agonist activity at human FPR2 expressed in CHO cells assessed as forskolin -induced cAMP level incubated for 30 mins in presence of IBMX by HTRF HiRange cAMP assay; assay type: functional, cell-based
T1 sequence (P25090 whole entry): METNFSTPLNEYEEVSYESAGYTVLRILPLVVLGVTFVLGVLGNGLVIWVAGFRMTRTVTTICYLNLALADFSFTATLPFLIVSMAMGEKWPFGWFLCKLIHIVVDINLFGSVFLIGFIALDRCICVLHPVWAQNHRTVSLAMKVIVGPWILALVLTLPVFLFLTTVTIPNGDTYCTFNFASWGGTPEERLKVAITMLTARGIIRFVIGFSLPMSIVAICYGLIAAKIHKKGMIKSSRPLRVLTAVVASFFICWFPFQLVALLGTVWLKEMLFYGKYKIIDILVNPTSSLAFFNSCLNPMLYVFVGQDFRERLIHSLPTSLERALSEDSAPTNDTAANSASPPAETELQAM

[2] = molecular target: Cytochrome P450 2D6 (Homo sapiens, UniProt P10635); assay: Inhibition of CYP2D6 (unknown origin); assay type: ADME
[3] = molecular target: Cytochrome P450 2C9 (Homo sapiens, UniProt P11712); assay: Inhibition of CYP2C9 (unknown origin); assay type: ADME
[4] = Agonist activity at rat FPR2 by cAMP assay
[5] = molecular target: T2, Cytochrome P450 1A2 (Homo sapiens, UniProt P05177); assay: Inhibition of CYP1A2 (unknown origin); assay type: ADME
T2 sequence (P05177 whole entry): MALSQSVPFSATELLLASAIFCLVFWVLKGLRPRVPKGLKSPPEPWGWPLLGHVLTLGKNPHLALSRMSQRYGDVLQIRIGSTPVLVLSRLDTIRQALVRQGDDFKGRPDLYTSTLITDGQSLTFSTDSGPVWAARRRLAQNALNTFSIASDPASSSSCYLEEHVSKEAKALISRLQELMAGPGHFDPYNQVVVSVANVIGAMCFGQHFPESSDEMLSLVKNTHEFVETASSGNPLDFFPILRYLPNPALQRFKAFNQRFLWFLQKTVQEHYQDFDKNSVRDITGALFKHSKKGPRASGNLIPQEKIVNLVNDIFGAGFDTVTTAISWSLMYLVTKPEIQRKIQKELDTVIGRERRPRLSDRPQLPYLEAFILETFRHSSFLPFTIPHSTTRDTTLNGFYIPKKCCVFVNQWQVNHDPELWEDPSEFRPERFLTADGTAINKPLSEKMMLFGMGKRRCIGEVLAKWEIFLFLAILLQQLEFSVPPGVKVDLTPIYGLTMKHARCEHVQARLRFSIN

[6] = molecular target: Cytochrome P450 2C19 (Homo sapiens, UniProt P33261); assay: Inhibition of CYP2C19 (unknown origin); assay type: ADME
[7] = Drug concentration in plasma of LPS-treated rat model at 10 mg/kg measured after 2 hrs; assay type: ADME, organism-based
[8] = Protein binding in human plasma assessed as free fraction; assay type: ADME, cell-free
[9] = Permeability across basal to apical side in human Caco-2 cells; assay type: ADME, cell-based; details: read-out: permeability
[10] = tested on: Rattus norvegicus; assay: Anti-inflammatory activity in LPS-treated rat model assessed as increase in IL-10 level at 10 mg/kg measured after 2 hrs relative to control; assay type: functional
[11] = Protein binding in rat plasma assessed as free fraction; assay type: ADME, cell-free
[12] = molecular target: Cytochrome P450 3A4 (Homo sapiens, UniProt P08684); assay: Inhibition of CYP3A4 (unknown origin); assay type: ADME
[13] = Cmax in rat at 3 mg/kg, po; assay type: ADME, organism-based; details: in vivo
[14] = AUC (total) in rat at 3 mg/kg, po; assay type: ADME, organism-based; details: in vivo
[15] = Permeability across apical to basal side in human Caco-2 cells; assay type: ADME, cell-based; details: read-out: permeability

Cytochrome P450 2D6, sequence (P10635 whole entry): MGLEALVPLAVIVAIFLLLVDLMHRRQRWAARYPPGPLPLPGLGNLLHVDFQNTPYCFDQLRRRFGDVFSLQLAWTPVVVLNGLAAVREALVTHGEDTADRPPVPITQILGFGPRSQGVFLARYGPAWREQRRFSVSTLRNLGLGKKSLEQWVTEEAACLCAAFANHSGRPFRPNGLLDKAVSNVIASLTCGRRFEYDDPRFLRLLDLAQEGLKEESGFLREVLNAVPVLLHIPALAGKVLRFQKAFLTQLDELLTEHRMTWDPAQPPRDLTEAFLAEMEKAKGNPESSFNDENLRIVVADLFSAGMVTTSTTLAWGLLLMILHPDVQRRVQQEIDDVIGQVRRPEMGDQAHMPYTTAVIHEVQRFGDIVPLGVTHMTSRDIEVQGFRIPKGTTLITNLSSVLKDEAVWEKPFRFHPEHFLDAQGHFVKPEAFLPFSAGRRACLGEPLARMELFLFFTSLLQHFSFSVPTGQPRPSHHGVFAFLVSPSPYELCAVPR
Cytochrome P450 2C9, sequence (P11712 whole entry): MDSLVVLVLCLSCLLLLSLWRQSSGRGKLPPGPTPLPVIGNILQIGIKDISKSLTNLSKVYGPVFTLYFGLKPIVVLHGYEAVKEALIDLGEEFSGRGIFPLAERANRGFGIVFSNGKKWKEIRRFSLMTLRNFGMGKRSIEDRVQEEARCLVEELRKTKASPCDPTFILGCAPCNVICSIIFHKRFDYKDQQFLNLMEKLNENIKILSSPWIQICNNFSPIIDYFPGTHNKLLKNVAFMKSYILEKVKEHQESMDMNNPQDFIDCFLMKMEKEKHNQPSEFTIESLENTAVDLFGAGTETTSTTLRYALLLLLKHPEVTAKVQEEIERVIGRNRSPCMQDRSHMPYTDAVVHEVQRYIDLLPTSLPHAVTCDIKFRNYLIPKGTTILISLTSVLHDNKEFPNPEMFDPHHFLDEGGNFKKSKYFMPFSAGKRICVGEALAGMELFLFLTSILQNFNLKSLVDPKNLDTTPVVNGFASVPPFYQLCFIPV
Cytochrome P450 2C19, sequence (P33261 whole entry): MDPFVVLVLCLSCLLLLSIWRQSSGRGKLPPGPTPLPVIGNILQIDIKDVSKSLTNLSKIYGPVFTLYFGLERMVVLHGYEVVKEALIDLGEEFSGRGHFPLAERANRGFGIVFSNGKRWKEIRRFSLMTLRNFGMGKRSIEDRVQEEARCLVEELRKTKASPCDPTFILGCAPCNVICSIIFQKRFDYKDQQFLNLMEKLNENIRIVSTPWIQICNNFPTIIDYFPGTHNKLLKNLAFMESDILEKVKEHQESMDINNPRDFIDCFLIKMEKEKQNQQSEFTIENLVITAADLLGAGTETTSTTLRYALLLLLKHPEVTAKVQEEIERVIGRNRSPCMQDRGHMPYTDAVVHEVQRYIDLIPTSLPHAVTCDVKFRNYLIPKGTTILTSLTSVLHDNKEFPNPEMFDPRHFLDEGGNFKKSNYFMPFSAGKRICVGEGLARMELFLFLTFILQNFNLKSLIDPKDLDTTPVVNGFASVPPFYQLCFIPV
Cytochrome P450 3A4, sequence (P08684 whole entry): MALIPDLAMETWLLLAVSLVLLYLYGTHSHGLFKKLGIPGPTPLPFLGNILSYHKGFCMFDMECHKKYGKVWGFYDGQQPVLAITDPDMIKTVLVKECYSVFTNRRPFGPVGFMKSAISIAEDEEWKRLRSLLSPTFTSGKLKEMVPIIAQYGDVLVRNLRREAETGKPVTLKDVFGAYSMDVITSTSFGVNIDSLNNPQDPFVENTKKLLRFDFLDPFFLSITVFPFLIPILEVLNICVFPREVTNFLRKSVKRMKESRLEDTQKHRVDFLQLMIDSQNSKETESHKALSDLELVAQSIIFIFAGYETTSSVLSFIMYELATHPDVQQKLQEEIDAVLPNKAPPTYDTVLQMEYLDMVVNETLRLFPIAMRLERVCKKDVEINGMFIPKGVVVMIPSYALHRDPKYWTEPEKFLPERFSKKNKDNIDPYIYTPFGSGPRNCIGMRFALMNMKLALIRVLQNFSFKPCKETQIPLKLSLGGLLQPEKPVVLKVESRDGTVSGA

Structure (SMILES)	EC50 [1] [nM]	INH [2] [µM]	INH [3] [µM]	EC50 [4] [nM]	INH [5] [µM]	INH [6] [µM]	concentration at 2 h [7] [nM]	fraction unbound [8]	Papp B→A [9] [×10⁻⁶ cm/s]	Activity [10] [%]	fraction unbound [11]	INH [12] [µM]	Cmax [13] [nM]	AUC [14] [µM·h]	Papp A→B [15] [×10⁻⁶ cm/s]
CS(=O)(=O)Nc1ccccc1-c1ccc(N2CCC[C@@H](NC(=O)Nc3ccc(C(F)(F)F)nc3)C2=O)cc1	10	–	–	–	–	–	–	–	–	–	–	–	–	–	–
NC(=O)c1ccccc1-c1ccc(N2CCC[C@@H](NC(=O)Nc3ccc(C(F)(F)F)cc3)C2=O)cc1	2.8	–	–	–	–	–	–	–	–	–	–	–	–	–	–
CS(=O)(=O)Nc1ccccc1-c1ccc(N2CCC[C@@H](NC(=O)Nc3ccc(Cl)cc3)C2=O)cc1	0.15	> 10	> 10	0.4	> 10	> 10	490	0.02	41.8	140	0.01	> 10	300	1.13	< 1.5
CS(=O)(=O)Nc1ccccc1-c1ccc(N2CCC[C@@H](NC(=O)Nc3ccc(Cl)cc3F)C2=O)cc1	0.2	> 10	> 10	0.6	> 10	> 10	1700	0.03	29.1	128	0.03	> 10	610	2.7	4.4
CS(=O)(=O)Nc1ccccc1-c1ccc(N2CCC[C@@H](NC(=O)Nc3ccc(C(F)(F)F)cn3)C2=O)cc1	4.5	–	–	–	–	–	–	–	–	–	–	–	–	–	–
CS(=O)(=O)Nc1ccccc1-c1ccc(N2CCC[C@@H](NC(=O)Nc3ccc(C(F)(F)F)cc3)C2=O)cc1	0.14	> 10	> 10	0.5	> 10	> 10	610	0.01	32.5	183	0.01	> 10	110	0.45	< 1.5
CS(=O)(=O)Nc1ccccc1-c1ccc(N2CCC[C@@H](NC(=O)Nc3ccc(C(F)(F)F)cc3F)C2=O)cc1	0.6	–	–	–	–	–	–	–	–	–	–	–	–	–	–
COc1cnc(NC(=O)N[C@@H]2CCCN(c3ccc(-c4ccccc4NS(C)(=O)=O)cc3)C2=O)c(F)c1	–	> 10	> 10	–	> 10	> 10	–	0.12	44	–	0.08	> 10	830	1.7	11
COc1ccc(NC(=O)N[C@@H]2CCCN(c3ccc(-c4ccccc4NS(C)(=O)=O)cc3)C2=O)cc1	0.3	–	–	–	–	–	–	–	–	–	–	–	–	–	–
CS(=N)(=O)c1ccccc1-c1ccc(N2CCC[C@@H](NC(=O)Nc3ccc(C(F)(F)F)cc3)C2=O)cc1 (stereo in doubt; 9)	1.6	–	–	–	–	–	–	–	–	–	–	–	–	–	–
CS(=N)(=O)c1ccccc1-c1ccc(N2CCC[C@@H](NC(=O)Nc3ccc(C(F)(F)F)cc3)C2=O)cc1 (stereo in doubt; 10)	9	–	–	–	–	–	–	–	–	–	–	–	–	–	–
